In one data set the target is EGFR (Homo sapiens, UniProt P00533). Description: EGFR kinase inhibition, whole-cell assay. Particulars: read-out: kinase inhibition IC50 [whole-cell assays] EGFR. The class given is cell-based.
In data set [1] the test system is βIII-tubulin overexpressing HeLa cell line. Briefly: HeLa cytotoxicity, βIII-tubulin overexpressing. The class given is cell-based. The settings on record: for IC50: βIII-tubulin overexpressing HeLa.
The next data set has as its target VEGFR2 (Homo sapiens, UniProt P35968). Briefly: VEGFR2 kinase inhibition, whole-cell assay. The class given is cell-based. Particulars: read-out: kinase inhibition IC50 [whole-cell assays] VEGFR2.
For a further data set, the system named is bovine brain tubulin. Description: inhibition of tubulin assembly. The data set is classed as biochemical. Particulars: bovine tubulin.
In another data set the target is PDGFRβ (Homo sapiens, UniProt P09619). Briefly: PDGFRβ kinase inhibition, whole-cell assay. The class given is cell-based. Particulars: for IC50: whole-cell assay, read-out: kinase inhibition IC50 [whole-cell assays] PDGFRβ.
PDGFRβ, sequence (P09619 33-1106, species assumed): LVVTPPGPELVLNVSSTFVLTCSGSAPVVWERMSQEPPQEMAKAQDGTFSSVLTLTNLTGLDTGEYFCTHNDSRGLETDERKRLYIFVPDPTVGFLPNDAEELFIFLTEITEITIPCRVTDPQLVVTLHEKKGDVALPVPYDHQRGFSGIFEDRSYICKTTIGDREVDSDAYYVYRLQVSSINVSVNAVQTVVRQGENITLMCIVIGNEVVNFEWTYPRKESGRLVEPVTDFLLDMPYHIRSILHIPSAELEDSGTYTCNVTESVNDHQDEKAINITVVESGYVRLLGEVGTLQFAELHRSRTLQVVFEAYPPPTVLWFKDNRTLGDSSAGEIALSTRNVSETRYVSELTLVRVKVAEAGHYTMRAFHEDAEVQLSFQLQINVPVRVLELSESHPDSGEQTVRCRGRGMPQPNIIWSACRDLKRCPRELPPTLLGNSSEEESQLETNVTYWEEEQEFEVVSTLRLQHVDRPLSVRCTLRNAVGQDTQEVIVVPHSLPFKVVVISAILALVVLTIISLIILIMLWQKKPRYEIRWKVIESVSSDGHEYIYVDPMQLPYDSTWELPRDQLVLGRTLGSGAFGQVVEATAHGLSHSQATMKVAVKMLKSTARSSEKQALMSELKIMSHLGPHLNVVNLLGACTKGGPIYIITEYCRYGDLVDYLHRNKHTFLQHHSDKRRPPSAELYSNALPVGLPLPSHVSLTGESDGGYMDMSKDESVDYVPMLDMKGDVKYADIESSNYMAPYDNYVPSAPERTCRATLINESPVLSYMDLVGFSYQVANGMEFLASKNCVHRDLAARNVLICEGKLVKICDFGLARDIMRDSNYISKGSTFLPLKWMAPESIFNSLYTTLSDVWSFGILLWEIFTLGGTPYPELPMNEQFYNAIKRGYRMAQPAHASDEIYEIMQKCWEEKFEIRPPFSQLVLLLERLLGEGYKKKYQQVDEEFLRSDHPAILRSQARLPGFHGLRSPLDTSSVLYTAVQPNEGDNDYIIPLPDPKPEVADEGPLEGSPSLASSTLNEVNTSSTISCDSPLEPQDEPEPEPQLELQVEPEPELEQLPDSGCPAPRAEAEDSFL
In a further data set the test system is A431 cells. Briefly: A431 cytotoxicity. The data set is classed as cell-based. The settings on record: Homo sapiens, A-431.
For a further data set, the system named is wild type HeLa cells. Description: HeLa cytotoxicity, wild type. The class given is cell-based.
A further data set can be described thus: MTD in mice. The settings on record: BALB/c, mouse, in vivo, ip. As for the experimental part:
(§1) BALB/c mice were implanted with 7.5 k 4T1-Luc2GFP triple negative mouse breast cancer cells orthotopically into mammary fat pad 4. 7 days after implantation, tumors are visible in over 90% of animals. At day 8 and continuing twice weekly until the experiment end, the MTD of compound 4.HCl (i.e. the hydrochloride salt of compound 4 shown in FIG. 1), determined to be 40 mg/kg, was given IP to tumor-bearing mice; […]; Both drugs were in solvent (5% solutol-15, 5% PharmaSolve in normal saline) and a solvent control group was included in addition to sham injected (untreated) group. Primary tumor volume and animal weights was assessed by calipers throughout the experiment.

Data set [2] relates to 4T1-Luc2GFP triple negative mouse breast cancer cells. The class given is in vivo. Particulars: for animal weight: mouse, in vivo. As for the experimental part: as §1
On day 40, all animals were injected IV with fluorescently labeled dextran as a marker of vasculature. Tumors were excised and weighed; lungs were excised and evaluated for metastases. […]; large micro metastases (>10 cells with no vasculature) and macrometastases (>10 cells with apparent vasculature) were counted. […]

Where a name gives a salt, the structure may show the parent alone. Read-outs that look alike come from different tables or passages of the source. Where only a bound is given, the exact number is not on record here.

Usually melting point stands for the temperature, or range, at which the solid turns liquid. What is called IC50 is the concentration needed to halve the response being measured.

EGFR, sequence (P00533 25-1210, species assumed): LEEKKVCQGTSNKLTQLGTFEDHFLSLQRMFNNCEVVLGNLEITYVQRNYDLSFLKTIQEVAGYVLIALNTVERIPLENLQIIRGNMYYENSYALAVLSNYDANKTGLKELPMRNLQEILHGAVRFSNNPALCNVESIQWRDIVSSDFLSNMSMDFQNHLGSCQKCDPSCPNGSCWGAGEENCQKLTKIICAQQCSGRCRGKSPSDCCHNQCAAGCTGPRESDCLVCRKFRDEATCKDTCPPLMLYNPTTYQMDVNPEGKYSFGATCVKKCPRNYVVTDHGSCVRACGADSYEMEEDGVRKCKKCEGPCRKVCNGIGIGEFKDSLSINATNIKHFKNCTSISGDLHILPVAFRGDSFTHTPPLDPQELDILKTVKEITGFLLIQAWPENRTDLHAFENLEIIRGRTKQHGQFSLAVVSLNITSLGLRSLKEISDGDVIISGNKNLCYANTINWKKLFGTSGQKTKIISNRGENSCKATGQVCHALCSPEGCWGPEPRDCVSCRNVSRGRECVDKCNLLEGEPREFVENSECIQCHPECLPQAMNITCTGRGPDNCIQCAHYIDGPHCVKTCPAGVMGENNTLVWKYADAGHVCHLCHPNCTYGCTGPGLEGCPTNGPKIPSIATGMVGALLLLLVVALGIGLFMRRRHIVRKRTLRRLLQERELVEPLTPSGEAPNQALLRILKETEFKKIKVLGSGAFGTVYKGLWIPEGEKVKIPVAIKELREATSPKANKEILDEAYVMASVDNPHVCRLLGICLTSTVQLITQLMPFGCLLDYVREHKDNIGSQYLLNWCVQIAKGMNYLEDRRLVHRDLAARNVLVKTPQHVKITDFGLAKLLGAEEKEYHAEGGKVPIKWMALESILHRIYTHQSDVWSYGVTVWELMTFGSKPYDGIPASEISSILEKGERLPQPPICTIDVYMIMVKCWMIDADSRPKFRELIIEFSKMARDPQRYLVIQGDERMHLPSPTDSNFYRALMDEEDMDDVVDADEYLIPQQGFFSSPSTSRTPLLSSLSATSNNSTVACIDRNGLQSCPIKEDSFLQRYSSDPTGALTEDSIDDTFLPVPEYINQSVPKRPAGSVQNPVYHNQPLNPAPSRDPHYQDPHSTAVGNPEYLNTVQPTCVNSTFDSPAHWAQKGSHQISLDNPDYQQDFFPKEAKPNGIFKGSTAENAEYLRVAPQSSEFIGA
VEGFR2, sequence (P35968 20-1356, species assumed): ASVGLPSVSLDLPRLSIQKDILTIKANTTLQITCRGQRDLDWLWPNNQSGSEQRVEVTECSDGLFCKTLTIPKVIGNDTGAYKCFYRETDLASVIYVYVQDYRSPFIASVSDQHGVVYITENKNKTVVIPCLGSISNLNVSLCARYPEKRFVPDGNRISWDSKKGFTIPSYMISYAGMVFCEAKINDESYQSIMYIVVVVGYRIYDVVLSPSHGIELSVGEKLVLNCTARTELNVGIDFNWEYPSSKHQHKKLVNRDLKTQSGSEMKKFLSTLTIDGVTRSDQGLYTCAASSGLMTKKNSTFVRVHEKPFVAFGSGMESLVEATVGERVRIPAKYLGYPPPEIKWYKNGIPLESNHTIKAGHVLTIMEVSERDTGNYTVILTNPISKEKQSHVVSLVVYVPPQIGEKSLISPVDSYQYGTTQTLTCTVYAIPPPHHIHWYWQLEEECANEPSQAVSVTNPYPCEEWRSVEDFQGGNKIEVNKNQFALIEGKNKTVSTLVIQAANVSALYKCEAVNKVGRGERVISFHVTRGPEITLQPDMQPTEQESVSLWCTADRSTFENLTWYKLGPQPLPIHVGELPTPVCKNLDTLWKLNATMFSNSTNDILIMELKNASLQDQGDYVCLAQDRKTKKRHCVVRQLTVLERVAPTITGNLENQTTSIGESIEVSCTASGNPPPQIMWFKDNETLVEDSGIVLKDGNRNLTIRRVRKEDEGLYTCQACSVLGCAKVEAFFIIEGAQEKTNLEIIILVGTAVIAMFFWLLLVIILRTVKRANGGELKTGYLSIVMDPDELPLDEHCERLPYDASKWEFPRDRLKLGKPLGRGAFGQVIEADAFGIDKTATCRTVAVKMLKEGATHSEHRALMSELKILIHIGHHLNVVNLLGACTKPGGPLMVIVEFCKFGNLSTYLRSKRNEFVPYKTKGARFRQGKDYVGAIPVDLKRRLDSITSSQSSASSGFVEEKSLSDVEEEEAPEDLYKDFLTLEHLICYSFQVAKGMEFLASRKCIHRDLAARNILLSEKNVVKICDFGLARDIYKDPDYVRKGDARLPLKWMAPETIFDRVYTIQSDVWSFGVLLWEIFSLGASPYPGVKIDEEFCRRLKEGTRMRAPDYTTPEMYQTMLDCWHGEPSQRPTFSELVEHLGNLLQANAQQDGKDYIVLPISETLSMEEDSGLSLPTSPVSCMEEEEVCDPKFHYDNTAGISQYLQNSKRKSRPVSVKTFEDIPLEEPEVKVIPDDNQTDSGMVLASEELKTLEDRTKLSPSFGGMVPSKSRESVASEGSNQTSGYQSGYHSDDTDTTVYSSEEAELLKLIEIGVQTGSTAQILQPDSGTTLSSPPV

Take `COc1ccc(Nc2nc(C)nc3c(Cc4ccccc4)cn(C)c23)cc1` (as salt: salt) [Compound 3, 7-Benzyl-N-(4-methoxyphenyl)-2,5-dimethyl-5H-pyrrolo[3,2-d]pyrimidin-4-amine]: the melting point was in the range of 291 to 292 °C.
Take `COc1ccc(Nc2nc(C)nc3c(Cc4ccccc4)cn(C)c23)cc1` [Compound 3, 7-Benzyl-N-(4-methoxyphenyl)-2,5-dimethyl-5H-pyrrolo[3,2-d]pyrimidin-4-amine]: the IC50 at EGFR was 2.6 nM; in data set [1] (Homo sapiens), 5000 nM; on VEGFR2, 26.7 nM; in the data set on bovine brain tubulin, more than 20000 nM; on PDGFRβ, 7.2 ± 0.9 nM; in the data set on A431 cells it was 2.3 ± 0.3 nM. Also, in the data set on wild type HeLa cells (Homo sapiens), inhibition was half-maximal at 5000 nM (IC50). The “potency against PDGFRβ, in words” value on PDGFRβ is given as “potencies comparable with DMBI”.
Take `COc1ccc(N(C)c2nc(C)nc3c(Cc4ccccc4)cn(C)c23)cc1` [Compound 4.HCl, 7-Benzyl-N-(4-methoxyphenyl)-N,2,5-trimethyl-5H-pyrrolo[3,2-d]pyrimidin-4-amine]: the MTD in “MTD in mice” turned out to be 40 mg/kg. For the same molecule, in data set [2] (40 mg/kg IP twice weekly from day 8, vs carrier or vs doxorubicin, FIG. 2), the “4T1 primary tumor growth (volume)” value is “significantly reduced 4T1 primary growth”. For the same molecule, the “number of lung small micro metastases” value in data set [2] (day 40, 1-9 cells without any vasculature, FIG. 5) was “reduced the number of lung small micro metastases”. Also, in data set [2] (day 40, >10 cells with apparent vasculature, FIG. 5), the lung macrometastases result was “none had any lung macrometastases”. Moreover, the “tumor weight at the end of the experiment” value in data set [2] (day 40, FIG. 4) is listed as “reduced tumor weight”. The animal weight result in data set [2] was “no change in animal weight”.
Molecule `COc1ccc2c(c1)CCCN2c1nc(C)nc2c(Cc3ccccc3)cn(C)c12` [Compound 5, 1-(7-Benzyl-2,5-dimethyl-5H-pyrrolo[3,2-d]pyrimidin-4-yl)-6-methoxy-1,2,3,4-tetrahydroquinoline] gave a melting point of 130 to 132 °C. For the same molecule, the IC50 on EGFR came out at 4.9 ± 0.6 nM. Besides, the half-inhibitory concentration (IC50) on VEGFR2 turned out to be 32.9 nM. The IC50 at PDGFRβ stood at 30.2 nM. In addition, in the data set on wild type HeLa cells (Homo sapiens), the IC50 was 60 nM.
For the molecule `COc1ccc(/C=C\c2cc(OC)c(OC)c(OC)c2)cc1O` [combretastatin A-4, reference compound], the IC50 in [1] came to 2.5 ± 0.7 nM; with wild type HeLa cells, 1.8 nM.
On to `CC(=O)O[C@@]12CO[C@@H]1C[C@H](O)[C@@]1(C)C(=O)[C@H](O)C3=C(C)[C@@H](OC(=O)[C@H](O)[C@@H](NC(=O)OC(C)(C)C)c4ccccc4)C[C@@](O)([C@@H](OC(=O)c4ccccc4)[C@H]21)C3(C)C` [docetaxel], for which, in [1], the “fold less potent in βIII-tubulin overexpressing cell line than in wild type HeLa cells” value is given as 3 fold. Also, the IC50 in data set [1] (Homo sapiens) was 13 ± 4 nM; in the data set on wild type HeLa cells (Homo sapiens), 4 ± 2 nM.
On to `COc1cccc2c1C(=O)c1c(O)c3c(c(O)c1C2=O)C[C@@](O)(C(=O)CO)C[C@@H]3O[C@H]1C[C@H](N)[C@H](O)[C@H](C)O1` [doxorubicin, reference compound], for which, in [2], the animal weight result is reported as “began to result in weight loss in a few animals”. Moreover, inhibition with A431 cells was half-maximal at 1.35 nM (IC50).
Turning to `CC(=O)O[C@H]1C(=O)[C@@]2(C)[C@H]([C@H](OC(=O)c3ccccc3)[C@]3(O)C[C@H](OC(=O)[C@H](O)[C@@H](NC(=O)c4ccccc4)c4ccccc4)C(C)=C1C3(C)C)[C@]1(OC(C)=O)CO[C@@H]1C[C@@H]2O` [paclitaxel], the “fold less potent in βIII-tubulin overexpressing cell line than in wild type HeLa cells” value in [1] was found to be 3 fold. Moreover, the IC50 was found to be 16.1 ± 1 nM in data set [1] (Homo sapiens) and 5.3 ± 2 nM with wild type HeLa cells (Homo sapiens).

Source of the values: US10906910B2, “Substituted bicyclic pyrimidine compounds with tubulin and multiple receptor inhibition” (Duquesne University of the Holy Spirit, priority 2014, dated 2021).
